The text below walks through data of publication PMC8041433 (Environmental Health Perspectives, 2021).

Where “and” joins values, the source holds several entries; their conditions need not be identical. Identical values can stand only once. Like-named read-outs stand apart in the source and are kept apart here.

Assay [1] has as its target T1, recombinant human AChE (Homo sapiens, UniProt P22303). As to the kind of experiment: biochemical.
Assay [2] concerns the target T1, recombinant human AChE. The assay is described as follows: biochemical. This is another data set of the same source.
For assay [3], the target named is AChE in SH-SY5Y cells (Homo sapiens, UniProt P22303). The assay is described as follows: cell-based.
In assay [4] the target is AChE in SH-SY5Y spheroids (Homo sapiens, UniProt P22303). The assay is described as follows: cell-based. The following applies: potency (IC50).
The target of assay [5] is AChE in neural stem cells (Homo sapiens, UniProt P22303). The assay is described as follows: cell-based.
For assay [6], the target named is AChE in neural stem cell spheroids (Homo sapiens, UniProt P22303). The assay is described as follows: cell-based. The following applies: for IC50: potency (IC50).
Assay [7] has as its target T1, recombinant human AChE. As to the kind of experiment: biochemical. It is filed as biochemical. The following applies: for AC50: AC50 (uM).
Assay [8] deals with T1, recombinant human AChE.
Assay [9] addresses T1, recombinant human AChE. As to the kind of experiment: biochemical. The source holds these as a separate data set.
[10] abbreviates: potency (IC50), SH-SY5Y cells monolayer.
Where [11] appears, read: Neural stem cell spheroid (24 h).
Setting [12] is: Neural stem cell spheroid (48 h).
[13] abbreviates: potency (IC50), Enzyme with microsomes.

Broadly, the IC50 is the concentration that gives 50% inhibition. One may read the AC50 as the concentration giving half of the maximal activity seen.
Throughout, for IR or R: key: Reversible (R); Irreversible (IR); ND, not detected in enzyme-based AChE inhibition assay from current study.

Chain of AChE in neural stem cells (P22303 32-614): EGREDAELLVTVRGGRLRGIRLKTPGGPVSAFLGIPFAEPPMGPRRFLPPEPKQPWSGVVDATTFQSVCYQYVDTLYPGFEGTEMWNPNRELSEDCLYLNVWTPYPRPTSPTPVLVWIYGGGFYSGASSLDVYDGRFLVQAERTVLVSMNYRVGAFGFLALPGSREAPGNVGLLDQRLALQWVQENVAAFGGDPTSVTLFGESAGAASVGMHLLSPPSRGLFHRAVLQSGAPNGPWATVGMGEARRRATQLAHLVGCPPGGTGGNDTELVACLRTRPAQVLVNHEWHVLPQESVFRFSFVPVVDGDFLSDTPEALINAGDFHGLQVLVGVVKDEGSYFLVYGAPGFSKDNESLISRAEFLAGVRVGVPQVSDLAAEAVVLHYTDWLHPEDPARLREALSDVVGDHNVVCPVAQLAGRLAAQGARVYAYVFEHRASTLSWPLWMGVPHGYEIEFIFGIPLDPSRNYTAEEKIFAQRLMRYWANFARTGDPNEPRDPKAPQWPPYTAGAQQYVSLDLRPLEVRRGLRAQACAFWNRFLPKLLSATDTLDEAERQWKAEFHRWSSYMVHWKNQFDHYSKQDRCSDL
T1 sequence (P22303 32-614): as above
Chain of AChE in neural stem cell spheroids (P22303 32-614): as above
Chain of AChE in SH-SY5Y spheroids (P22303 32-614): as above
Chain of AChE in SH-SY5Y cells (P22303 32-614): as above

Turning to `CCN(CC)CCOc1ccc2c(c1)C(=O)c1cc(OCCN(CC)CC)ccc1-2` [Tilorone, reference compound], the “CC-v2 (curve classes)” value in assay [1], in assay [3] and in [8] was -1.1 in each case. Moreover, the results for the Efficacy in [1] and in assay [8] were -92.014 and -84.739, respectively. The IC50 was 4.18 µM in assay [1] (potency (IC50), Enzyme); 5.52 ± 1.16 µM in assay [2]; 0.977 µM and 1.1 µM and 0.776 µM in assay [3] (IC50 (uM)); 1.77 µM in [3] (setting [10]); 1.34 µM in assay [4] (SH-SY5Y spheroids (24 h)); 1.42 µM in [4] (SH-SY5Y spheroids (48 h)). Also, the IC50 was 5.88 µM in assay [5], 19.6 µM in assay [6] (setting [11]), 25.7 µM in assay [6] (setting [12]) and 5.46 µM in assay [9] (setting [13]). Also, in [7], the “IR or R” value is recorded as “R”. Also, the “reversibility of AChE inhibition (result in words)” value in [7] is “reversible”. Moreover, in [7], the AC50 is 6.85 µM (2×) and 6.11 µM (2×) and 4.85 µM and 7.69 µM and 9.68 µM.
As for `CNC(=O)O/N=C(\SC)C(=O)N(C)C` [Oxamyl], the “CC-v2 (curve classes)” value in [1], in assay [3] and in assay [8] was -1.1 each time. Besides, the IC50 is 1.74 ± 0.48 µM in assay [1] (potency (IC50), Enzyme); 2.81 ± 0.32 µM in [2]; 1.55 µM and 1.42 µM and 1.23 µM in [3] (IC50 (uM)); 2.5 ± 0.28 µM in assay [3] (setting [10]); 2.28 ± 0.63 µM in assay [4] (SH-SY5Y spheroids (24 h)); 3.05 ± 0.52 µM in assay [4] (SH-SY5Y spheroids (48 h)). For the same compound, the IC50 turned out to be 3.39 ± 0.22 µM in [5], 0.96 ± 0.38 µM in [6] (setting [11]), 1.85 µM in assay [6] (setting [12]) and 2.16 ± 0.36 µM in assay [9] (setting [13]). Also, the AC50 was 3.95 µM and 4.44 µM and 3.52 µM in assay [7] (activity_5); 2.8 µM and 3.52 µM and 2.5 µM in [7] (activity_10); 0.703 µM and 1.57 µM and 1.25 µM in [7] (activity_60).
On to `CCOP(=S)(OCC)O/N=C(\C#N)c1ccccc1` [Phoxim], for which the “CC-v2 (curve classes)” value is -2.2 and -2.1 in [1]; -2.1 in assay [3]; -1.1 in [8]. Further, the 50% inhibitory concentration (IC50) is 23.4 µM in assay [1] (potency (IC50), Enzyme); 22 ± 4.1 µM in assay [2]; 17.4 µM and 63.3 µM and 30.9 µM and 71 µM and 34.7 µM in assay [3] (IC50 (uM)); 20.9 µM in assay [3] (setting [10]); 13.3 µM in [4] (SH-SY5Y spheroids (24 h)); 12.9 µM in [4] (SH-SY5Y spheroids (48 h)). Also, the half-maximal inhibitory concentration (IC50) in assay [5] was 3.18 µM; in assay [6] (setting [11]), 0.33 µM; in [6] (setting [12]), 0.4 µM; in assay [9] (setting [13]), 0.67 µM. Besides, the AC50 in assay [7] (activity_5) is 27.3 µM and 24.3 µM; in assay [7] (activity_10) it was 30.6 µM and 24.3 µM; in assay [7] (activity_60), 21.7 µM and 19.3 µM and 24.3 µM.
`CCCSP(=O)(OCC)Oc1ccc(Br)cc1Cl` (centres unmarked) [Profenofos]: the “CC-v2 (curve classes)” value in assay [1], in assay [3] and in assay [8] was -1.1 each time. For the same compound, the Efficacy in assay [1] is recorded as -92.505; in assay [8], -79.632. Moreover, the IC50 in assay [1] (IC50 (uM)) is 3.87 µM; in assay [1] (potency (IC50), Enzyme), 3.85 µM; in assay [2] it was 5.25 ± 0.34 µM; in assay [3] (IC50 (uM)), 6.88 µM and 5.46 µM and 7.72 µM; in assay [3] (setting [10]), 3.71 ± 0.24 µM; in assay [4] (SH-SY5Y spheroids (24 h)) it was 2.57 ± 2.21 µM. The IC50 in [4] (SH-SY5Y spheroids (48 h)) came to 2.89 ± 0.65 µM; in assay [5], 1.05 ± 0.14 µM; in assay [6] (setting [11]), 0.2 ± 0.09 µM; in assay [6] (setting [12]) it was 0.78 µM; in assay [9] (IC50 (uM)), 2.74 µM; in assay [9] (setting [13]) it was 3.43 µM. Moreover, the AC50 is 10.9 µM and 17.2 µM and 15.3 µM in assay [7] (activity_5); 12.2 µM and 15.3 µM in [7] (activity_10); 6.85 µM and 7.69 µM and 13.7 µM in assay [7] (activity_60).
For the compound `CCCCN(CCCC)SN(C)C(=O)Oc1cccc2c1OC(C)(C)C2` [Carbosulfan], the “CC-v2 (curve classes)” value in assay [1], in assay [3] and in [8] was -1.1 in each case. The half-inhibitory concentration (IC50) in [1] (potency (IC50), Enzyme) was 1.67 µM; in assay [2], 1.36 ± 0.19 µM; in [3] (IC50 (uM)), 0.159 µM and 0.809 µM and 0.126 µM and 1.14 µM and 0.224 µM and 0.573 µM; in [3] (setting [10]), 3.23 µM; in assay [4] (SH-SY5Y spheroids (24 h)) it was 0.46 µM; in assay [4] (SH-SY5Y spheroids (48 h)), 0.68 µM. Also, the IC50 in assay [5] is 10.9 µM; in [6] (setting [11]), 5.25 µM; in assay [6] (setting [12]), 8.89 µM; in assay [9] (IC50 (uM)) it was 3.56 µM and 0.573 µM; in assay [9] (setting [13]) it was 0.44 µM. Moreover, the “IR or R” value in assay [7] was “R”. In assay [7], the AC50 was 993 nM (3×) and 1.11 µM and 885 nM.
Regarding `CNC(=O)Oc1ccccc1C(C)C` [Isoprocarb], the “CC-v2 (curve classes)” value in assay [1] was -1.1; in [3], -1.1; in assay [8], -2.1. In addition, the Efficacy is -91.575 in assay [1] and -88.562 in assay [8]. Moreover, the IC50 is 6.55 ± 0.83 µM in [1] (potency (IC50), Enzyme); 9.21 ± 0.62 µM in assay [2]; 3.56 µM and 4.48 µM in assay [3] (IC50 (uM)); 8.21 ± 0.55 µM in assay [3] (setting [10]); 5.45 ± 4.07 µM in assay [4] (SH-SY5Y spheroids (24 h)); 12.5 µM in [4] (SH-SY5Y spheroids (48 h)). Moreover, the IC50 was found to be 21 ± 9.16 µM in assay [5], 39.6 µM in assay [6] (setting [12]) and 8.53 ± 0.55 µM in assay [9] (setting [13]). In [6], the “potency (IC50), Neural stem cell spheroid (24 h)” value is listed as “Inactive”. Further, in assay [7], the “IR or R” value is “R”. Besides, in assay [7], the AC50 was 9.93 µM and 14 µM and 17.7 µM and 22.2 µM and 12.5 µM and 4.98 µM and 3.95 µM and 5.59 µM.
On to `CCN(C(=O)c1cc(C)cc(OC[C@H](C)Nc2ccncc2)c1)C(C)C.Cc1ccc(S(=O)(=O)O)cc1` [GW473178E methyl benzene sulfonic acid], for which the figures for the “CC-v2 (curve classes)” value in assay [1], in assay [3] and in assay [8] were -2.1, -1.1 and -2.2, respectively. In addition, the Efficacy in assay [1] is listed as -70.195; in assay [8], -52.62. Besides, the 50% inhibitory concentration (IC50) in assay [1] (IC50 (uM)) was 22.2 µM; in assay [1] (potency (IC50), Enzyme), 10.6 µM; in assay [2], 19.7 ± 2.26 µM; in assay [3] (IC50 (uM)), 12.5 µM and 11.1 µM; in assay [3] (setting [10]), 23.3 µM; in assay [4] (SH-SY5Y spheroids (24 h)), 9.63 µM. Also, the IC50 amounted to 24 µM in assay [4] (SH-SY5Y spheroids (48 h)); 24.8 µM in assay [5]; 31.2 µM in [6] (setting [12]); 49.7 µM in assay [9] (IC50 (uM)); 18.9 µM in assay [9] (setting [13]). Also, the “potency (IC50), Neural stem cell spheroid (24 h)” value in assay [6] is given as “Inactive”. Also, in assay [7], the “IR or R” value was “R”. The AC50 in assay [7] is 11 µM (2×) and 19.6 µM and 9.82 µM (3×) and 8.76 µM and 12.4 µM.
In the case of `CCOC(=O)CC(SP(=O)(OC)OC)C(=O)OCC` (centres unmarked) [Malaoxon], the “CC-v2 (curve classes)” value in assay [1] is -1.1; in [3], -1.1; in [8], -2.1. Besides, the IC50 in assay [1] (potency (IC50), Enzyme) is 1.46 µM; in [2], 4.62 ± 0.31 µM; in assay [3] (IC50 (uM)), 3.56 µM and 3.02 µM and 3.17 µM and 2.83 µM; in assay [3] (setting [10]), 3.05 ± 0.52 µM; in assay [4] (SH-SY5Y spheroids (24 h)), 4.09 ± 3.42 µM; in assay [4] (SH-SY5Y spheroids (48 h)), 3.95 µM. Besides, the 50% inhibitory concentration (IC50) is 5.86 ± 1.05 µM in assay [5], 5.05 ± 3.3 µM in [6] (setting [11]), 9.46 µM in assay [6] (setting [12]) and 4.43 µM in assay [9] (setting [13]). Further, in assay [7], the AC50 was 22.2 µM (2×) and 9.93 µM and 7.89 µM and 25 µM and 8.85 µM (2×) and 5.59 µM and 11.1 µM.
Turning to `CNC(=O)Oc1ccc(N(C)C)c(C)c1` [Aminocarb], the “CC-v2 (curve classes)” value is -1.1 in assay [1], -1.1 in assay [3] and -2.1 in assay [8]. For the same compound, the Efficacy in assay [1] is reported as -98.887; in assay [8], -71.886. Moreover, the IC50 is 7.92 ± 0.91 µM in [1] (potency (IC50), Enzyme); 9.57 ± 0.62 µM in assay [2]; 5.64 µM and 7.1 µM and 6.33 µM in assay [3] (IC50 (uM)); 5 ± 0.57 µM in assay [3] (setting [10]); 12.3 ± 9.41 µM in [4] (SH-SY5Y spheroids (24 h)); 6.85 ± 3.73 µM in assay [4] (SH-SY5Y spheroids (48 h)). Besides, the IC50 in assay [5] is 11.7 ± 2.1 µM; in [6] (setting [11]), 25.7 ± 7.15 µM; in assay [6] (setting [12]), 29.1 µM; in [9] (setting [13]), 8.21 ± 0.55 µM. In assay [7], the AC50 was 17.7 µM and 22.2 µM and 12.5 µM and 28 µM and 25 µM and 7.03 µM and 11.1 µM and 7.89 µM.
